Like-named read-outs stand apart in the source and are kept apart here.
How the values were obtained:
[1] = Liver microsomal stability assay, human
Protocol: The compounds to be tested were co-incubated with liver microsomes of different species with or without the addition of NADPH. The final concentration of the test compounds in the test system was 1 µM, the final concentration of NADPH was 1 mM, and the final concentration of liver microsomes was 0.5 mg/mL.

[2] = Membrane permeability: Caco-2 assay; format: in vitro ADME; conditions: human; for Papp A→B / Papp B→A: Caco-2, apical pH 6.5, basolateral pH 7.4
Protocol: The membrane permeability of the molecules of the invention was evaluated. […] Efflux Ratio = Papp(B−A) /Papp(A−B) [formula]

HCT116-MTAPdel = test: 2D antiproliferative assay (CTG cell viability), MTAP-deficient cells; format: cell-based; conditions: for IC50: Homo sapiens, HCT-116, HCT116 MTAP-deficient cells, 7-10 days, CTG, read-out: HCT116-MTAPdel/IC50/nM; for HCT116WT IMTAPdel selectivity: ratio IC50 wild type / MTAPdel, antiproliferation
Protocol: (§1) HCT116 wild-type and MTAP-deficient cells were cultured in McCoy's 5A medium containing 10% FBS and 1% penicillin-streptomycin, and cultured in a 37°C, 5% CO2 constant temperature incubator. 40 µL of cell suspension was introduced into each well of a 384-well microplate. 40 nL of different concentrations of test compounds were added to each well using an Echo, before culturing in a 37°C, 5% CO2 constant temperature incubator for 7-10 days. 40 µL of CTG solution (Promega, Cat No. G7573) was added to each well and incubated in a 37°C, 5% CO2 constant temperature incubator for 30 minutes in the dark.

HCT116-MTAPwt = test: 2D antiproliferative assay (CTG cell viability), wild-type cells; format: cell-based; conditions: Homo sapiens, HCT-116, 7-10 days
Protocol: as §1

SDMA/HCT116-MTAPwt = test: In-cell arginine symmetric dimethylation inhibition (In-cell western, ICW), wild-type cells; format: cell-based; conditions: Homo sapiens, HCT-116, 96 hours
Protocol: (§2) 60 nL of different concentrations of compounds were added to each well using an Echo, and incubated at 37°C, 5% CO2 for 96 hours.
(§3) Next, 50 µL of 4% paraformaldehyde solution was added to each well and incubated at room temperature for 20 minutes to fix the cells. The solution in the wells was removed, and each well was rinsed four times with PBS solution containing 0.1% Tween 20 (PBST). To each well was then added 30 µL of ice-cold methanol. After standing at -20°C for 10 minutes, the methanol was removed and the wells washed four times with PBST. 30 µL of Odyssey blocking solution containing 0.5% Tween 20 was added to each well and shaken for 2 hours at room temperature. The blocking solution was removed and 30 µL of primary antibody (Symmetric Di-Methyl Arginine Motif [sdma-RG] MultiMab™ Rabbit mAb mix) diluted at 1:500 in Odyssey blocking solution containing 0.5% Tween 20 was added to each well. The plates were incubated overnight at 4°C, before removing the primary antibody and rinsing each well four times with PBST, 5 minutes per rinse. Secondary antibody (goat anti-rabbit IRDye 800CW, 1:800) and nuclear stain (DRAQ5, 1:10000) diluted in Odyssey blocking solution containing 0.5% Tween 20 were then added to each well before incubating at room temperature for 2 hours in the dark. The secondary antibody was removed, and the wells rinsed four times with PBST.
(§4) The sdme-RG and DRAQ5 signals were scanned at 800 nm and 700 nm respectively on a Li-Cor Odyssey instrument and the signal values recorded. The sdme-RG/DRAQ5 ratio was used to calculate the percentage inhibition of arginine symmetric dimethylation (SDMA), and the IC50 value calculated using GraphPad Prism software.

SDMA/HCT116-MTAPdel = test: In-cell arginine symmetric dimethylation inhibition (In-cell western, ICW), MTAP-deficient cells; format: cell-based; conditions: for IC50: Homo sapiens, HCT-116, HCT116 MTAP-deficient cells, 96 hours
Protocol: as §2, §3, §4

[3] = Mouse pharmacokinetics testing; format: in vivo, CD1 female mice
Protocol: CD1 female mice were used as test animals and administered the compounds orally/intravenously (oral dosage was 10 mg/kg and intravenous dosage was 2 mg/kg). Test protocol: Each oral and intravenous group consisted of three mice. […] Plasma drug concentrations after oral and intravenous administration were determined by LC/MS/MS, and the collected data analyzed using AB Sciex QTRAP 6500 software.

[4] = female, CD1, mouse, in vivo, iv, 2 mg/kg
[5] = female, CD1, mouse, in vivo, po, 10 mg/kg

Structure (SMILES)	IC50 (HCT116-MTAPdel) [nM]	IC50 (HCT116-MTAPwt) [nM]	HCT116WT IMTAPdel selectivity (HCT116-MTAPdel)	also measured
C[C@@H]1CC[C@@H](c2ccc3scnc3c2)N(C(=O)C(=O)Nc2cnc(N)c3c2cnn3C)C1 (racemic) [Compound P3]	13	827	–	CLint scaled at 1 h, 1 µM ([1]; liver microsomes): 23.9 mL/min/kg; Papp A→B [2]: 2.66 ×10⁻⁶ cm/s; Papp B→A [2]: 34.2 ×10⁻⁶ cm/s
CC1CCC(c2ccc3sc(C4CCN(C)CC4)nc3c2)N(C(=O)C(=O)Nc2cnc(N)c3c2cnn3C)C1 (racemic) [Compound P5]	4	36	9	CLint scaled at 1 h, 1 µM ([1]; liver microsomes): 10.7 mL/min/kg
C[C@H]1COC[C@@H](c2ccc(C(F)(F)F)cn2)N1C(=O)C(=O)Nc1cnc(N)c2c1cnn2C (racemic) [Compound P11]	15	855	57	CLint scaled at 1 h, 1 µM ([1]; microsomes): 16.5 mL/min/kg
C[C@H]1CC[C@H](c2ccc3sc(CCN(C)C)nc3c2)N(C(=O)C(=O)Nc2cnc(N)c3c2cnn3C)C1 (racemic) [Compound P15]	6	203	34	CLint scaled at 1 h, 1 µM ([1]; microsomes): 9.7 mL/min/kg
Cc1cc2cc(C(=O)N(Cc3ccc(C(F)(F)F)cn3)[C@H](C)c3ncccn3)ccc2nc1N [AM9747, reference compound]	7	237	–	IC50 (SDMA/HCT116-MTAPwt): 332 nM; IC50 (SDMA/HCT116-MTAPdel): 0.6 nM
CN(C(=O)C(=O)Nc1cnc(N)c2c1cnn2C)[C@@H]1COCc2nc(-c3cncc(Cl)c3)ccc21 [Compound H2b]	4	1230	308	CLint scaled at 1 µM ([1]; liver microsomes): 21.3 mL/min/kg
CN(C(=O)C(=O)Nc1cnc(N)c2c1cnn2C)C1COc2cc(C(F)(F)F)ccc21 (stereo not drawn) [Compound P2]	32	2680	84	CLint scaled at 1 µM ([1]; liver microsomes): 13 mL/min/kg; efflux ratio ([2]; Caco-2, Efflux Ratio = Papp(B-A)/Papp(A-B)): 1.5; Papp A→B [2]: 13.5 ×10⁻⁶ cm/s; Papp B→A [2]: 20.5 ×10⁻⁶ cm/s
C[C@H]1CC[C@H](c2ccc3scnc3c2)N(C(=O)C(=O)Nc2cnc(N)c3c2cnn3C)C1 [Compound P3b]	2	275	–	IC50 (SDMA/HCT116-MTAPwt): 578 nM; F ([3]; PO (10 mg/kg) vs IV (2 mg/kg), CD1 female mice): 31%; AUC(0-t) ([3]; mouse, IV (2 mg/kg), CD1 female mice, plasma, read-out: AUC0-24): 383 ng·h/mL; C0 ([3]; mouse, IV (2 mg/kg), CD1 female mice, plasma, read-out: C0): 1650 ng/mL; clearance ([3]; mouse, IV (2 mg/kg), CD1 female mice, plasma, read-out: Cl): 86.6 mL/min/kg; half-life ([3]; mouse, IV (2 mg/kg), CD1 female mice, plasma, read-out: T1/2 (converted)): 19.2 min; AUC(0-t) ([3]; mouse, PO (10 mg/kg), CD1 female mice, plasma, read-out: AUC0-24): 586 ng·h/mL; Cmax ([3]; mouse, PO (10 mg/kg), CD1 female mice, plasma, read-out: Cmax): 883 ng/mL; half-life ([3]; mouse, PO (10 mg/kg), CD1 female mice, plasma, read-out: T1/2 (converted)): 66 min; Tmax ([3]; mouse, PO (10 mg/kg), CD1 female mice, plasma, read-out: Tmax): 15 min; IC50 (SDMA/HCT116-MTAPdel): 0.6 nM
CN(C(=O)C(=O)Nc1cnc(N)c2c1cnn2C)C1COCc2nc(C(F)(F)F)ccc21 (stereo not drawn) [Compound P9]	24	1420	59	CLint scaled at 1 µM ([1]; liver microsomes): 5 mL/min/kg
C[C@H]1COC[C@@H](c2ccc(-c3cncc(Cl)c3)cn2)N1C(=O)C(=O)Nc1cnc(N)c2c1cnn2C [Compound P13a]	616	> 10000	>16	–
C[C@@H]1COC[C@H](c2ccc(-c3cncc(Cl)c3)cn2)N1C(=O)C(=O)Nc1cnc(N)c2c1cnn2C [Compound P13b]	2	506	253	–
CCN(C(=O)C(=O)Nc1cnc(N)c2c1cnn2C)[C@H]1COc2cc(C(F)(F)F)ccc21 [Compound P19b]	261	3860	15	–
Cn1ncc2c(NC(=O)C(=O)N(CC(F)(F)F)[C@@H]3COc4cc(C(F)(F)F)ccc43)cnc(N)c21 [Compound P20a]	28	6020	215	CLint scaled at 1 µM ([1]; liver microsomes): 19.2 mL/min/kg
Cn1ncc2c(NC(=O)C(=O)N(CC(F)(F)F)[C@H]3COc4cc(C(F)(F)F)ccc43)cnc(N)c21 [Compound P20b]	883	> 10000	11	–
Cn1ncc2c(NC(=O)C(=O)N(C3CC3)[C@H]3COc4cc(C(F)(F)F)ccc43)cnc(N)c21 [Compound P21a]	978	> 10000	10	–
Cn1ncc2c(NC(=O)C(=O)N(C3CC3)[C@@H]3COc4cc(C(F)(F)F)ccc43)cnc(N)c21 [Compound P21b]	6	847	141	–
[2H]C([2H])([2H])n1ncc2c(NC(=O)C(=O)N(C)[C@@H]3COc4cc(C(F)(F)F)ccc43)cnc(N)c21 [Compound P23]	17	1710	101	–
CCn1ncc2c(NC(=O)C(=O)N(C)[C@@H]3COc4cc(C(F)(F)F)ccc43)cnc(N)c21 [Compound P24]	2410	> 10000	>4	–
CCn1ncc2c(NC(=O)C(=O)N(C)[C@@H]3COCc4nc(C(F)(F)F)ccc43)cnc(N)c21 [Compound P25]	1260	> 10000	>8	–
[2H]C([2H])([2H])n1ncc2c(NC(=O)C(=O)N(C)[C@@H]3COCc4nc(C(F)(F)F)ccc43)cnc(N)c21 [Compound P26]	12	4550	380	–
[2H]C([2H])([2H])N(C(=O)C(=O)Nc1cnc(N)c2c1cnn2C)[C@@H]1COCc2nc(C(F)(F)F)ccc21 [Compound P27]	15	2110	141	–
CCN(C(=O)C(=O)Nc1cnc(N)c2c1cnn2C)[C@H]1COCc2nc(C(F)(F)F)ccc21 [Compound P28a]	986	2340	2	–
CN(C(=O)C(=O)Nc1cnc(N)c2c1cnn2C)C1COc2cc(OC(F)(F)F)ccc21 (stereo not drawn) [Compound P30]	13	3140	241	CLint scaled at 1 µM ([1]; liver microsomes): 9.4 mL/min/kg; F ([3]; female, CD1, mouse, in vivo): 74%; AUC(0-t) [3, 4]: 1410 ng·h/mL; C0 [3, 4]: 1070 ng/mL; clearance [3, 4]: 23 mL/min/kg; half-life [3, 4]: 120 min; AUC(0-t) [3, 5]: 5150 ng·h/mL; Cmax [3, 5]: 1850 ng/mL; Tmax [3, 5]: 15 min; half-life [3, 5]: 90 min
CN(C(=O)C(=O)Nc1cnc(N)c2c1cnn2C)[C@@H]1COc2cc(OC(F)(F)F)ccc21 [Compound P30a]	7	1550	221	–
CN(C(=O)C(=O)Nc1cnc(N)c2c1cnn2C)[C@H]1COc2cc(OC(F)(F)F)ccc21 [Compound P30b]	191	> 10000	>52	–
CSc1ccc2c(c1)OCC2N(C)C(=O)C(=O)Nc1cnc(N)c2c1cnn2C (stereo not drawn) [Compound P31]	21	3580	171	–
CC(=O)N1CCC(Nc2cc(C(=O)NC[C@H](O)CN3CCc4ccccc4C3)ncn2)CC1 [GSK3326595, reference compound]	17	72	4	–
Cc1cc(NC(=O)C(=O)N2C[C@@H](C)CC[C@@H]2c2ccc3scnc3c2)cnc1N [TNG908, reference compound]	43	1190	27	IC50 (SDMA/HCT116-MTAPwt): 2210 nM; IC50 (SDMA/HCT116-MTAPdel): 2.6 nM; Selectivity wt/MTAPdel (SDMA/HCT116-MTAPdel; ratio SDMA IC50 wt / MTAPdel): 850

Source: patent publication EP4653435A1, “PRMT5-MTA INHIBITOR” (Suzhou Puhe Biopharma Co., Ltd., priority 2023, dated 2024)
